In patent US20260232661A1, “Compositions and Uses Thereof” (Purposeful IKE, priority 2020, published 2026):
Values joined by “and” are separate entries in the source; they are usually repeats but may differ in a detail not shown here. Equal values may be shown once.

Tests used:
Type in all cases: in vivo
Fmr1 KO mice [1] = test: Open field test (hyperactivity)
Procedure: (§1) Fmr1 KO mice backcrossed to the FVB strain and WT littermates were used during experiments. TransnetXY Automated Genotyping (www.transnetyx.com/). TRANSNETYX, INC., 8110 Cordova Rd. Suite 119, Cordova, TN 38016, USA was used for genotyping. The animals were pretreated for 14 days. The active ingredients of Sumatriptan and Ergoloid were in a water carrier, whereas oxitriptan was in a methanol carrier.
(§2) The mice were housed in plastic cages (35×30×12 cm), 5 in each. The room temperature (21±2° C.), relative humidity (55±5%), a 12-h light-dark cycle (lights on 7 a.m.-7 p.m.) and air exchange (16 times per h) were automatically controlled. The animals had free access to commercial food pellets and water. Testing was conducted during the light phase. Ten mice per treatment group were used for the AGS experiments. Experiments were conducted in line with the requirements of the UK Animals (Scientific Procedures) Act, 1986.
(§3) All experiments were conducted with the experimenter blind to genotype and drug treatment. Separate investigators prepared and coded dosing solutions, allocated the mice to the study treatment groups, dosed the animals, and collected the Audiogenic Seizure data.
(§4) Behavior testing was conducted at 2 weeks. The behavioral tests were as follows: 1. Hyperactivity: Open field; 2. Stereotypy: Self-grooming; 3. Sociability: Three chamber partition test; 4. Memory and Learning: Novel Object Recognition; 5. Anxiety: hyponeophagia; and 6. Test of daily living: marble burying
For hyperactivity, the open field test (OFT) is a common measure of exploratory behavior and general activity in both mice and rats, where both the quality and quantity of the activity can be measured. Principally, the open field (OF) is an enclosure, generally square, rectangular, or circular in shape with surrounding walls that prevent escape. The OFT is also commonly used as a mechanism to assess the sedative, toxic, or stimulant effects of compounds (Gould 2009).
(§5) The treatment of the mice with OX (Oxitriptan), SU (Sumatriptan), ER (Ergoloid mesylates, also referred to as ergoloid herein) were according to the matrix shown below in Table 1.
(§6) The experimental procedures described above for Example 1 were used in the following tests, as well as the addition of two further behaviour tests as described below. An SSRI (selective serotonin re-uptake inhibitor) was co-dosed with the ergoloid mesylates and oxitriptan to assess the effect of the ergoloid mesylates and oxitriptan treatment on a subject already receiving SSRI treatment.
(§7) The treatment of the mice with OX (Oxitriptan), ER (Ergoloid mesylates) and FL (fluvoxamine) were according to the matrix shown below in Table 21. The triple combination involved dosing of 2 mg/kg ergoloid mesylates, 40 mg/kg oxitriptan and 40 mg/kg of fluvoxamine (the SSRI).

Fmr1 KO mice [2] = test: Self-grooming (stereotypy); conditions: Dunnett's test, alpha 0.05; doses as E31
Procedure: as §1, §2, §3
Behavior testing was conducted at 2 weeks. The behavioral tests were as follows: 1. Hyperactivity: Open field; 2. Stereotypy: Self-grooming; 3. […]
For stereotypy, self-grooming was assessed. […]

Fmr1 KO mice [3] = test: Three chamber partition test (sociability); parameters: Mean Diff., N_WT-V vs. treated KO (Sociability) / Mean 2, treated KO group (Sociability) / Mean Diff., F_KO-V vs. F_KO treated (Sociability) / Mean Diff., F_KO-V vs. N_KO treated (Sociability) / Mean 2, F_KO treated group (Sociability) / Mean 2, N KO treated group (Sociability) / Mean 2, N_KO treated group (Sociability) / Data table Sociability, F_KO-Sumatriptan / Data table Sociability, N_KO-Sumatriptan / Data table Sociability, F_KO-Oxitriptan: unit not given here
Procedure: as §1, §2, §3, §4
For sociability a three chamber partition test was utilized. The three-chamber paradigm test known as Crawley's sociability and preference for social novelty protocol has previously been successfully employed to study social affiliation and social memory in several inbred and mutant mouse lines. The main principle of the test was based on the free choice by a subject mouse to spend time in any of three box's compartments during two experimental sessions, including indirect contact with one or two mice with which it was unfamiliar (Kaidanovich-Beilin 2011).
(§8) The treatment of the mice with OX (Oxitriptan), SU (Sumatriptan), ER (Ergoloid mesylates, also referred to as ergoloid herein) were according to the matrix shown below in Table 1. […]

Fmr1 KO mice [4] = test: Novel Object Recognition (memory and learning); parameters: Mean Diff., N_WT-V vs. treated KO (NOR) / Mean 2, treated KO group (NOR) / Mean Diff., F_KO-V vs. F_KO treated (NOR) / Mean Diff., F_KO-V vs. N_KO treated (NOR) / Mean 2, F_KO treated group (NOR) / Mean 2, N_KO treated group (NOR): unit not given here
Procedure: as §1, §2, §3, §4
For memory and learning, a novel object recognition (NOR) task was used to evaluate the rodents' ability to recognize a novel object in the environment. […] The task procedure consists of three phases: habituation, familiarization, and test phase (Antunes 2012).
as §8

Fmr1 KO mice [5] = test: Hyponeophagia test (anxiety)
Procedure: as §1, §2, §3, §4
For anxiety a hyponeophagia test was conducted. Mice and rats cannot vomit, due to the tightness of the cardiac sphincter of the stomach, so to overcome the problem of potential food toxicity they have evolved a strategy of first ingesting only very small amounts of novel substances. The amounts ingested then gradually increase until the animal has determined whether the substance is safe and nutritious. So the old rat-catchers would first put a palatable substance such as oatmeal, which was to be the vehicle for the toxin, in the infested area (Deacon 2011).
as §5, §6, §7

Fmr1 KO mice [6] = test: Test of daily living (nesting; marble burying)
Procedure: as §1, §2, §3, §4
For test of daily living, nesting was assessed as nest building is an innate behavior in rodents, even when raised in laboratory settings. Synthetic and/or natural materials (such as twine, tissue, cotton, paper, and hay) are provided as a gauge of their overall well-being and as an ancillary assessment to predict the possible decline in cognition. Typically, changes in nesting behaviors, such as failure to create a nest, indicate a change in health or welfare. In addition, nesting behavior is sensitive to many environmental and physiological challenges, as well as many genetic mutations underlying pathological disease states (Gaskill 2013).
as §5, §6, §7

[7] = F_ groups, mg/kg: Sumatriptan 20, Oxitriptan 40, Ergoloid 4, Ergoloid 2+Oxitriptan 40 (Column M)
[8] = F_, KO mice, Sumatriptan 20 mg/kg, individual animals
[9] = N_ groups, mg/kg: Sumatriptan 20, Oxitriptan 40, Ergoloid 4, Ergoloid 2+Oxitriptan 40
[10] = N_ groups, mg/kg: Sumatriptan 20, Oxitriptan 40, Ergoloid 4, F_KO Ergoloid 2+Sumatriptan 10, N_KO Ergoloid 2+Oxitriptan 40
[11] = KO mice, mg/kg: Sumatriptan 20, Oxitriptan 40, Ergoloid 4, Ergoloid 2+Sumatriptan 10, Ergoloid 2+Oxitriptan 40

CNS(=O)(=O)Cc1ccc2[nH]cc(CCN(C)C)c2c1 [Sumatriptan]
Below threshold? WT-V vs. treated KO (Open Field) (Fmr1 KO mice [1]; Dunnett's test, alpha 0.05, doses as E1): Yes
Significant? KO-V vs. treated KO (Open Field) (Fmr1 KO mice [1]; Dunnett's test, alpha 0.05, doses as E26): Yes
Mean Diff., KO-V vs. treated KO (Open Field) (Fmr1 KO mice [1]; KO mice, mg/kg: Sumatriptan 20, Oxitriptan 80, Ergoloid 4, Ergoloid 2+Oxitriptan 40): 846.8
Significant? KO-V vs. treated KO (Stereotypy) (Fmr1 KO mice [2]): Yes
Significant? F_KO-V vs. F_KO treated (Sociability) (Fmr1 KO mice [3]; Dunnett's test, alpha 0.05, F_ groups, doses as E56): Yes
Significant? F_KO-V vs. N_KO treated (Sociability) (Fmr1 KO mice [3]; Dunnett's test, alpha 0.05, N_ groups, doses as E61): Yes
Significant? N_WT-V vs. treated KO (Sociability) (Fmr1 KO mice [3]; Dunnett's test, alpha 0.05, groups and doses as E21): No
Summary, N_WT-V vs. treated KO (Sociability) (Fmr1 KO mice [3]; Dunnett's test, groups and doses as E21): ns
Mean Diff., F_KO-V vs. F_KO treated (Sociability) (Fmr1 KO mice [3]; [7]): 19.40
Data table Sociability, F_KO-Sumatriptan (Fmr1 KO mice [3]; [8]): 61 (2×) and 64 and 65 (2×) and 60 (3×) and 63 (2×)
Data table Sociability, N_KO-Sumatriptan (Fmr1 KO mice [3]; KO mice, Sumatriptan 20 mg/kg, individual animals): 99 and 97 (2×) and 103 and 98 and 90 and 102 and 100 and 95 and 101
Mean Diff., F_KO-V vs. N_KO treated (Sociability) (Fmr1 KO mice [3]; [9]): −16.80
Mean Diff., N_WT-V vs. treated KO (Sociability) (Fmr1 KO mice [3]; [10]): 0.9000
Mean 2, F_KO treated group (Sociability) (Fmr1 KO mice [3]; comparison against F_KO-V, doses as E56): 62.20
Mean 2, N KO treated group (Sociability) (Fmr1 KO mice [3]; comparison against F_KO-V, doses as E61): 98.2
Mean 2, treated KO group (Sociability) (Fmr1 KO mice [3]; comparison against N_WT-V, groups and doses as E21): 98.20
Significant? F_KO-V vs. F_KO treated (NOR) (Fmr1 KO mice [4]; Dunnett's test, alpha 0.05, F_ groups, doses as E46): No
Significant? F_KO-V vs. N_KO treated (NOR) (Fmr1 KO mice [4]; Dunnett's test, alpha 0.05, N_ groups, doses as E51): No
Significant? N_WT-V vs. treated KO (NOR) (Fmr1 KO mice [4]; Dunnett's test, alpha 0.05, groups and doses as E16): Yes
Summary, F_KO-V vs. F_KO treated (NOR) (Fmr1 KO mice [4]; Dunnett's test, F_ groups, doses as E46): ns
Summary, F_KO-V vs. N_KO treated (NOR) (Fmr1 KO mice [4]; Dunnett's test, N_ groups, doses as E51): ns
Mean Diff., F_KO-V vs. F_KO treated (NOR) (Fmr1 KO mice [4]; [7]): −0.2000
Data table Novel Object Recognition, F_KO-Sumatriptan (Fmr1 KO mice [4]; [8]): 6
Mean Diff., F_KO-V vs. N_KO treated (NOR) (Fmr1 KO mice [4]; [9]): −0.7000
Mean Diff., N_WT-V vs. treated KO (NOR) (Fmr1 KO mice [4]; [10]): 6.600
Mean 2, F_KO treated group (NOR) (Fmr1 KO mice [4]; comparison against F_KO-V, doses as E46): 5.800
Mean 2, N_KO treated group (NOR) (Fmr1 KO mice [4]; comparison against F_KO-V, doses as E51): 7.300
Mean 2, treated KO group (NOR) (Fmr1 KO mice [4]; comparison against N_WT-V, groups and doses as E16): 7.300
Significant? WT-V vs. treated KO (Hyponeophagia) (Fmr1 KO mice [5]; Dunnett's test, alpha 0.05, doses as E6): Yes
Significant? KO-V vs. treated KO (Hyponeophagia) (Fmr1 KO mice [5]; Dunnett's test, alpha 0.05, doses as E36): Yes
Mean Diff., WT-V vs. treated KO (Hyponeophagia) (Fmr1 KO mice [5]; [11]): −9.200
Significant? WT-V vs. treated KO (Test of daily living) (Fmr1 KO mice [6]; Dunnett's test, alpha 0.05, doses as E11): No
Significant? KO-V vs. treated KO (Test of daily living) (Fmr1 KO mice [6]; Dunnett's test, alpha 0.05, doses as E41): Yes
Summary, WT-V vs. treated KO (Test of daily living) (Fmr1 KO mice [6]; Dunnett's test, doses as E11): ns
Mean Diff., WT-V vs. treated KO (Test of daily living) (Fmr1 KO mice [6]; [11]): 0.1000
Mean 2, treated KO group (Test of daily living) (Fmr1 KO mice [6]; comparison against KO-V, doses as E41): 4.700
Mean 2, treated KO group (Test of daily living) (Fmr1 KO mice [6]; comparison against WT-V, doses as E11): 4.700
